# Assay results as given in patent US8048915B2, “Biologically active complex” (BioMas Ltd., priority 2001, dated 2011).
# Values joined by “and” are separate entries in the source; they are usually repeats but may differ in a detail not shown here. Equal values may be shown once. Read-outs that look alike come from different tables or passages of the source.
# Tests used:
# [1] = system: Ha-Ras transformed NIH-3T3 cells; assay: Colony growth of Ha-Ras transformed NIH-3T3 cells; type: cell-based
# Procedure: (§1) 5×10^2 cells were plated per 60 mm dish and incubated with different concentrations (0.005-5 μg/ml) of the complex in PBS. A week later, the cells were stained with Gimsa and clones were counted. Similar experiments were conducted using V-mos transformed NIH-3T3 cells, and also using Ph2TeCl2 and Ph3TeCl, with both types of transformed cells.
# mice = conditions: 6 week old mice; preliminary
# [2] = system: colony stimulating factor (CSF)
# Procedure: (§2) Spleens were removed from 15, male Balb-c mice 6 to 8 weeks of age. The spleen cells were pushed through stainless steel 60 mesh (U.S. Standard) nets resting in 5 mm Petri dishes containing PBS in order to separate the cells. The cells were then collected into centrifuge tubes and spun at 1000 rpm for 10 minutes. The supernatant was discarded and cells were treated with 5 ml of hypotonic buffer (0.15M NH4Cl; 0.01M KHCO3 dissolved in double distilled water, pH 7.2) for exactly two minutes. Thereafter, PBS was added to the cells and the test tubes were centrifuged for 10 minutes at 1000 rpm. The cells were rinsed twice and counted in a hemocytometer using trypan blue to test for viability. The cells were brought to a concentration of 10^7viable cells/ml.
# IL-2 [3] = conditions: 10^7 viable cells/ml
# Procedure: as §2
# IL-2 receptors = assay: IL-2 receptor sites on human mononuclear cells, fluoresceinated antibody; type: cell-based; conditions: 1 μg/ml; 24 hours incubation
# Procedure: This example provides an assay to detect the presence of receptor sites for IL-2. […] The cells were washed twice with PBS and then incubated with a specific fluoresceinated antibody against IL-2 receptors as described in Uchiyama et al, J. Immunol.
# human mononuclear cells = assay: Proliferation of human mononuclear cells (Example 14); type: cell-based; conditions: 72 hours + 24 hours label, listed as Ex. 1
# Procedure: Human mononuclear cells were obtained by layering heparinized blood over a Ficoll/Hypaque gradient. The mononuclear cells were resuspended in enriched RPMI, rinsed three times and brought to a concentrations of 5×10^5cells/ml enriched RPMI. Varying concentrations of the complexes of Ex. 1 and Ex. 7(a), ranging from 0.005 μg to 5 μg/cell mixture were added to the cells. Aliquots of 0.2 ml of each sample were placed in wells of microplates (triplicates).
# IL-2 [4] = system: IL-2
# Procedure: The complexes were administered in these dilutions, as drinking water, to male Balb-C mice, 6-8 weeks of age over a 4 day period. The exact amount of liquid intake was recorded daily. […] The cells were incubated at a concentration of 10^7 cells/ml in enriched RPMI containing 2 μg/ml of con-A for 24 hours at 37° C. The supernatants were collected and tested for IL-2 content.
# [5] = system: V-mos transformed NIH-3T3 cells; assay: Colony growth of V-mos transformed NIH-3T3 cells; type: cell-based; conditions: one week; clones counted
# Procedure: as §1
# [6] = 5 pg (as starting material of Preparation 1)
# [7] = 50 pg (as starting material of Preparation 1)
# [8] = 500 pg (as starting material of Preparation 1)
# [9] = 5 ng (as starting material of Preparation 1)
# [10] = 50 ng (as starting material of Preparation 1)
# [11] = 500 ng (as starting material of Preparation 1)
# [12] = 5 μg (as starting material of Preparation 1)
# [13] = 50 μg (as starting material of Preparation 1)
# [14] = 1 μg/ml H2O as drinking water over 4 days
# [15] = 10 μg/ml H2O as drinking water over 4 days
smiles,measurement,setting,value
"Cl[Te]1(Cl)(Cl)OCCO1.N [Example 1, equimolar complex of TeO2 and ethylene glycol, NH4Cl salt]",number of colonies / growth compared with control,"[1]; 0.005-5 μg/ml in PBS, one week, clones counted",major reduction in the number of colonies
same,concentration giving the maximum effect (inhibition),[1]; 0.005-5 μg/ml tested,0.05 µg/mL
same,LD50,mice,300 μg/25 g of body weight
same,CSF,[2]; [6],140 colonies/dish
same,CSF,[2]; [7],260 colonies/dish
same,CSF,[2]; [8],175 colonies/dish
same,CSF,[2]; [9],120 colonies/dish
same,CSF,[2]; [10],75 colonies/dish
same,CSF,[2]; [11],25 colonies/dish
same,CSF,[2]; [12],5 colonies/dish
same,CSF,[2]; [13],2 colonies/dish
same,IL-2,IL-2 [3]; [6],"12,000 cpm"
same,IL-2,IL-2 [3]; [7],"38,000 cpm"
same,IL-2,IL-2 [3]; [8],"30,000 cpm"
same,IL-2,IL-2 [3]; [9],"15,000 cpm"
same,IL-2,IL-2 [3]; [10],"6,000 cpm"
same,IL-2,IL-2 [3]; [11],"5,000 cpm"
same,IL-2,IL-2 [3]; [12],"5,000 cpm"
same,IL-2,IL-2 [3]; [13],"5,000 cpm"
same,cells positive for IL-2 receptors,IL-2 receptors,20%
same,proliferation of human mononuclear cells (3H methyl-thymidine),human mononuclear cells; 5 μg/ml,5008 and 5182
same,proliferation of human mononuclear cells (3H methyl-thymidine),human mononuclear cells; 1 × 10^−5 μg/ml,3218 and 2442
same,"IL-2 content, cpm",IL-2 [4]; [14],44500 cpm
same,Percent increase as compared to control,IL-2 [4]; [14],+35%
same,"IL-2 content, cpm",IL-2 [4]; [15],49179 cpm
same,Percent increase as compared to control,IL-2 [4]; [15],+50%
same,inducing lymphokine production when given orally,IL-2 [4]; orally in an aqueous diluent,active
same,inhibition of growth,[5],"none of the complex, Ph2TeCl2 or Ph3TeCl inhibited the growth"
